This assay concerns psoriatic lesion(s). The experiment in a line: Pre-psoriatic rim topical administration and treatment of psoriasis. It counts as in vivo. On the procedure:
In one embodiment, a composition for topical administration was prepared using the peptide CGRP8-37 in a topical formulation at 20 μg/g. The effective range of the peptide in the composition can be between 0.00001 μg/g to […], depending on formulation and measured penetration parameters. The described composition was applied to an area at least partially around the psoriatic lesion(s), termed the pre-psoriatic rim, which was determined using well known laser Doppler flowmetry. […] 10 μg/g of the peptide was applied twice daily for 4 weeks. The composition was purposely not applied directly to the lesion. Without being held to a single theory, a novel local neural transport mechanism appears to be responsible for the effects observed by the pre-psoriatic rim administration resulting in treatment of psoriasis. Topical steroids are usually applied directly on lesions as is the convention for most topical treatments. Topical steroid molecules are much smaller (<500 Da) then CGRP8-37 (3100 Da) and therefore can more easily penetrate thick skin, topical steroids also have a side-effect on normal skin causing skin atrophy in some cases. That is why, for steroids and some other topical remedies e.g. tar (being irritating to normal skin), applying around the lesion is not recommended. […]

Where no end group is shown, it is not given here.

Consider “CGRP8-37: CGRP derivative peptide, high affinity CGRP receptor antagonist; sequence SEQ ID NO:1 or SEQ ID NO:2; used in topical formulation (VTHRLAGLLSRSGGVVKNNFVPTNVGSKAF; ends and bridges not checked; UniProt P06881 90-119, looked up, fragment)”, for which the “improvement at low dosage” value (applied around the lesion, doses as low as 1 μg/g of topical formulation) is recorded as “significant improvement”. The “response of psoriatic lesion (plaque on right shoulder, FIGS. 8-10)” value (topical composition applied to pre-psoriatic rim, not directly to the lesion, 10 μg/g of the peptide twice daily for 4 weeks) is reported as “clearing completely”.

Source of the values: patent publication US11517612B2, “Methods of treating inflammatory skin disorders” (NEPSONE EHF, priority 2016, dated 2022).
